This note sets out measurements from patent US6596257B2, “Detection and visualization of neoplastic tissues and other tissues” (Prolume, Ltd., priority 1996, dated 2003).

The format of data set [1] is physicochemical. The text has this:
Coelenterazine is not terribly soluble in non-irritant vehicles. Coelenterazine is soluble to at least to a concentration of 200 micrograms/mL in a solution of 2% (w/v) PEG 400 containing about 0.8% (w/v) NaCl. Although this solution is slightly hypertonic, it is not an irritant for vehicle purposes.

Data set [2] has as its system mice. Description: Repeated administration toxicology: gross signs of toxicity in behavior. The class given is in vivo, mouse. The note with it: 1 mg/kg i.p., daily administration for three days, n=6. From the text:
[…] Mice are examined over the course of the study for any gross signs of toxicity as evidenced in their behavior. At the end of the one-week period, blood which is collected by cardiac puncture immediately prior to sacrifice. Animals are sacrificed and ten different tissue samples are removed post mortem from each animal. Isolated tissues are fixed, stained, blocked and sectioned. The pathology of the tissue samples will be analyzed and the toxicology data are compiled.

Take coelenterazine: the “solubility (soluble to at least a concentration of)” value in data set [1] was not below 200 micrograms/mL. For the same substance, the gross behavior changes result in data set [2] was “no gross behavior changes”.
